Reference: the supplement of paper PMC8671470
± gives the standard deviation of the averaged measurements.

system: Mono-Mac-6; experiment: not given; conditions: 72 h
Procedure, shortened: (§1)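 Fifteen myeloid leukaemia cell lines were seeded in RPMI 1640 at densities titrated to the linear growth range and placed in 384-well plates with acoustically pre-printed compounds at five tenfold doses from 1 to 10,000 nM, in duplicate. After 72 h at 37 °C with 5% CO2, luminescent ATP viability was normalised to vehicle and to a positive control at 10 µM, and curves were fitted with a four-parameter log-logistic model. The IC50 was obtained from these fits.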

| SMILES | IC50 (cell viability) [µM] |
| --- | --- |
| C[C@]12C=CC(=O)C=C1CC[C@@H]1[C@@H]2[C@@H](O)C[C@@]2(C)[C@H]1CC[C@]2(O)C(=O)CO [Prednisolone] | > 10 |
| C=CCN(C)CCCCCCOc1ccc(C(=O)c2ccc(Br)cc2)c(F)c1.O=C(O)/C=C/C(=O)O [Ro 48-8071 fumarate] | > 10 |

system: NOMO-1; experiment: not given; conditions: 72 h
Procedure, shortened: as §1

| SMILES | IC50 (cell viability) [µM] |
| --- | --- |
| CN(Cc1cnc2nc(N)nc(N)c2n1)c1ccc(C(=O)N[C@@H](CCC(=O)O)C(=O)O)cc1 [Methotrexate] | 0.0515 |
| COC(=O)c1cc2c(C(F)(F)F)cc(-c3ccccc3)cc2n1O [NHI-2] | > 10 |
| CCCCCCCC/C=C\CCCCCCCC(=O)Nc1ccccc1 [Octadec-9-Enoic Acid Phenylamide] | > 10 |
| CC[C@H](C)[C@H](N)C(=O)N1CCSC1 [P32/98] | > 10 |
| CC(=O)Nc1nc(C)c(-c2ccc(Cl)c(S(=O)(=O)NCCO)c2)s1 [PIK93] | 2.05 |
| OC[C@H]1O[C@@H](n2cnc3c2N=CNC[C@H]3O)C[C@@H]1O [Pentostatin] | > 10 |
| CC(C)CC(=O)N[C@H](C(=O)N[C@H](C(=O)N[C@@H](CC(C)C)[C@@H](O)CC(=O)N[C@@H](C)C(=O)N[C@@H](CC(C)C)[C@@H](O)CC(=O)O)C(C)C)C(C)C [Pepstatin A] | > 10 |
| Cc1cccc(Nc2cc(Cl)nc(SCC(=O)O)n2)c1C [Pirinixic acid] | > 10 |
| C[C@]12C=CC(=O)C=C1CC[C@@H]1[C@@H]2[C@@H](O)C[C@@]2(C)[C@H]1CC[C@]2(O)C(=O)CO [Prednisolone] | > 10 |
| C=CCN(C)CCCCCCOc1ccc(C(=O)c2ccc(Br)cc2)c(F)c1.O=C(O)/C=C/C(=O)O [Ro 48-8071 fumarate] | > 10 |

system: SHI-1; experiment: not given; conditions: 72 h
Procedure, shortened: as §1

| SMILES | IC50 (cell viability) [µM] |
| --- | --- |
| CN(Cc1cnc2nc(N)nc(N)c2n1)c1ccc(C(=O)N[C@@H](CCC(=O)O)C(=O)O)cc1 [Methotrexate] | 0.0808 |
| COC(=O)c1cc2c(C(F)(F)F)cc(-c3ccccc3)cc2n1O [NHI-2] | > 10 |
| CCCCCCCC/C=C\CCCCCCCC(=O)Nc1ccccc1 [Octadec-9-Enoic Acid Phenylamide] | > 10 |
| CC[C@H](C)[C@H](N)C(=O)N1CCSC1 [P32/98] | > 10 |
| CC(=O)Nc1nc(C)c(-c2ccc(Cl)c(S(=O)(=O)NCCO)c2)s1 [PIK93] | 1.09 |
| OC[C@H]1O[C@@H](n2cnc3c2N=CNC[C@H]3O)C[C@@H]1O [Pentostatin] | > 10 |
| CC(C)CC(=O)N[C@H](C(=O)N[C@H](C(=O)N[C@@H](CC(C)C)[C@@H](O)CC(=O)N[C@@H](C)C(=O)N[C@@H](CC(C)C)[C@@H](O)CC(=O)O)C(C)C)C(C)C [Pepstatin A] | > 10 |
| Cc1cccc(Nc2cc(Cl)nc(SCC(=O)O)n2)c1C [Pirinixic acid] | > 10 |
| C[C@]12C=CC(=O)C=C1CC[C@@H]1[C@@H]2[C@@H](O)C[C@@]2(C)[C@H]1CC[C@]2(O)C(=O)CO [Prednisolone] | > 10 |
| C=CCN(C)CCCCCCOc1ccc(C(=O)c2ccc(Br)cc2)c(F)c1.O=C(O)/C=C/C(=O)O [Ro 48-8071 fumarate] | > 10 |

system: THP-1; experiment: not given; conditions: 72 h
Procedure, shortened: as §1

| SMILES | IC50 (cell viability) [µM] |
| --- | --- |
| CN(Cc1cnc2nc(N)nc(N)c2n1)c1ccc(C(=O)N[C@@H](CCC(=O)O)C(=O)O)cc1 [Methotrexate] | 0.0319 |
| COC(=O)c1cc2c(C(F)(F)F)cc(-c3ccccc3)cc2n1O [NHI-2] | > 10 |
| CCCCCCCC/C=C\CCCCCCCC(=O)Nc1ccccc1 [Octadec-9-Enoic Acid Phenylamide] | > 10 |
| CC[C@H](C)[C@H](N)C(=O)N1CCSC1 [P32/98] | > 10 |
| CC(=O)Nc1nc(C)c(-c2ccc(Cl)c(S(=O)(=O)NCCO)c2)s1 [PIK93] | 1.51 |
| OC[C@H]1O[C@@H](n2cnc3c2N=CNC[C@H]3O)C[C@@H]1O [Pentostatin] | > 10 |
| CC(C)CC(=O)N[C@H](C(=O)N[C@H](C(=O)N[C@@H](CC(C)C)[C@@H](O)CC(=O)N[C@@H](C)C(=O)N[C@@H](CC(C)C)[C@@H](O)CC(=O)O)C(C)C)C(C)C [Pepstatin A] | > 10 |
| Cc1cccc(Nc2cc(Cl)nc(SCC(=O)O)n2)c1C [Pirinixic acid] | > 10 |
| C[C@]12C=CC(=O)C=C1CC[C@@H]1[C@@H]2[C@@H](O)C[C@@]2(C)[C@H]1CC[C@]2(O)C(=O)CO [Prednisolone] | > 10 |
| C=CCN(C)CCCCCCOc1ccc(C(=O)c2ccc(Br)cc2)c(F)c1.O=C(O)/C=C/C(=O)O [Ro 48-8071 fumarate] | > 10 |

system: HL-60; experiment: cell viability (% survival relative to DMSO control); higher = less cytotoxic; conditions: 0.001 µM; 72 h; co-treatment: AZD3965 100 nM
Procedure, shortened: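 HL-60 cells grown in RPMI 1640 with 10% FBS were rescreened against the full library in 384-well plates, in duplicate, at five tenfold concentrations from 1 to 10,000 nM, alongside DMSO or 100 nM of one of three metabolic inhibitors for 72 h at 37 °C, 5% CO2. Reference wells contained DMSO or 10 μM proteasome inhibitor. Viability was read with CellTiter-Glo and normalised to these reference wells, and where reported, area under the curve was taken from four-parameter log-logistic fits in drc and PharmacoGx.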

| SMILES | cell viability [%] |
| --- | --- |
| CN(Cc1cnc2nc(N)nc(N)c2n1)c1ccc(C(=O)N[C@@H](CCC(=O)O)C(=O)O)cc1 [Methotrexate] | 108 ± 5.9 |
| COC(=O)c1cc2c(C(F)(F)F)cc(-c3ccccc3)cc2n1O [NHI-2] | 101 ± 16 |
| CCCCCCCC/C=C\CCCCCCCC(=O)Nc1ccccc1 [Octadec-9-Enoic Acid Phenylamide] | 99.2 ± 1.6 |
| CC[C@H](C)[C@H](N)C(=O)N1CCSC1 [P32/98] | 99.83 ± 0.39 |
| CC(=O)Nc1nc(C)c(-c2ccc(Cl)c(S(=O)(=O)NCCO)c2)s1 [PIK93] | 102.8 ± 0.77 |
| OC[C@H]1O[C@@H](n2cnc3c2N=CNC[C@H]3O)C[C@@H]1O [Pentostatin] | 97.8 ± 3.3 |
| CC(C)CC(=O)N[C@H](C(=O)N[C@H](C(=O)N[C@@H](CC(C)C)[C@@H](O)CC(=O)N[C@@H](C)C(=O)N[C@@H](CC(C)C)[C@@H](O)CC(=O)O)C(C)C)C(C)C [Pepstatin A] | 104 ± 3.4 |
| Cc1cccc(Nc2cc(Cl)nc(SCC(=O)O)n2)c1C [Pirinixic acid] | 98.81 ± 0.56 |
| C[C@]12C=CC(=O)C=C1CC[C@@H]1[C@@H]2[C@@H](O)C[C@@]2(C)[C@H]1CC[C@]2(O)C(=O)CO [Prednisolone] | 82.4 ± 21 |
| C=CCN(C)CCCCCCOc1ccc(C(=O)c2ccc(Br)cc2)c(F)c1.O=C(O)/C=C/C(=O)O [Ro 48-8071 fumarate] | 99.39 ± 0.26 |

same assay, conditions: 0.001 µM; 72 h; co-treatment: DMSO vehicle

| SMILES | cell viability [%] |
| --- | --- |
| CN(Cc1cnc2nc(N)nc(N)c2n1)c1ccc(C(=O)N[C@@H](CCC(=O)O)C(=O)O)cc1 [Methotrexate] | 101.2 ± 0.11 |
| COC(=O)c1cc2c(C(F)(F)F)cc(-c3ccccc3)cc2n1O [NHI-2] | 102 ± 3.1 |
| CCCCCCCC/C=C\CCCCCCCC(=O)Nc1ccccc1 [Octadec-9-Enoic Acid Phenylamide] | 94.5 ± 9.6 |
| CC[C@H](C)[C@H](N)C(=O)N1CCSC1 [P32/98] | 99.4 ± 4 |
| CC(=O)Nc1nc(C)c(-c2ccc(Cl)c(S(=O)(=O)NCCO)c2)s1 [PIK93] | 98.3 ± 2.1 |
| OC[C@H]1O[C@@H](n2cnc3c2N=CNC[C@H]3O)C[C@@H]1O [Pentostatin] | 92.3 ± 12 |
| CC(C)CC(=O)N[C@H](C(=O)N[C@H](C(=O)N[C@@H](CC(C)C)[C@@H](O)CC(=O)N[C@@H](C)C(=O)N[C@@H](CC(C)C)[C@@H](O)CC(=O)O)C(C)C)C(C)C [Pepstatin A] | 98.3 ± 3.8 |
| Cc1cccc(Nc2cc(Cl)nc(SCC(=O)O)n2)c1C [Pirinixic acid] | 97.46 ± 0.45 |
| C[C@]12C=CC(=O)C=C1CC[C@@H]1[C@@H]2[C@@H](O)C[C@@]2(C)[C@H]1CC[C@]2(O)C(=O)CO [Prednisolone] | 95.9 ± 4.6 |
| C=CCN(C)CCCCCCOc1ccc(C(=O)c2ccc(Br)cc2)c(F)c1.O=C(O)/C=C/C(=O)O [Ro 48-8071 fumarate] | 99.1 ± 5.6 |

same assay, conditions: 0.001 µM; 72 h; co-treatment: GSK2194069 100 nM

| SMILES | cell viability [%] |
| --- | --- |
| CN(Cc1cnc2nc(N)nc(N)c2n1)c1ccc(C(=O)N[C@@H](CCC(=O)O)C(=O)O)cc1 [Methotrexate] | 110 ± 3 |
| COC(=O)c1cc2c(C(F)(F)F)cc(-c3ccccc3)cc2n1O [NHI-2] | 103 ± 4.8 |
| CCCCCCCC/C=C\CCCCCCCC(=O)Nc1ccccc1 [Octadec-9-Enoic Acid Phenylamide] | 93 ± 1.7 |
| CC[C@H](C)[C@H](N)C(=O)N1CCSC1 [P32/98] | 99.6 ± 1.6 |
| CC(=O)Nc1nc(C)c(-c2ccc(Cl)c(S(=O)(=O)NCCO)c2)s1 [PIK93] | 102 ± 4 |
| OC[C@H]1O[C@@H](n2cnc3c2N=CNC[C@H]3O)C[C@@H]1O [Pentostatin] | 86.6 ± 13 |
| CC(C)CC(=O)N[C@H](C(=O)N[C@H](C(=O)N[C@@H](CC(C)C)[C@@H](O)CC(=O)N[C@@H](C)C(=O)N[C@@H](CC(C)C)[C@@H](O)CC(=O)O)C(C)C)C(C)C [Pepstatin A] | 100 ± 2.5 |
